Measurements from patent publication US4891374A, “Imidazo- and triazolothiadiazines” (Hoechst Aktiengesellschaft, priority 1987, dated 1990).
Structures can show the parent of a compound that is named as a salt.

Columns and labels:
in vivo [1] = conditions: mouse, ip
Experimental: The LD50 values were determined by standard methods from the mortality occurring within 7 days in NMRI (Naval Medical Research Institute) mice (6 animals per dose) after a single intraperitoneal (i.p.) administration.

in vivo [2] = conditions: rat, po
Experimental: The investigation was in each case carried out on 10 male Sprague-Dawley rats whose gastric mucous membrane had been sensitized by hunger stress. The body weight of the animals was between 200 and 300 g. While allowing free access to the drinking water, the feed was withdrawn 48 hours before administration of the test preparations until sacrifice of the animals. The rats were sacrificed 24 hours after oral administration of the substance, and the stomachs were removed, cleaned under running water and inspected for mucous membrane lesions. All macroscopically visible lesions were regarded as ulcers. The number of animals having ulcers was determined per dose, and this figure was used to calculate, by the method of Litchfield and Wilcoxon (J. Pharmacol. Exp. Ther. 96 (1949), p. 99), the UD50 values, ie. the doses at which lesions were caused in 50% of the animals.

Adjuvant arthritis = Adjuvant arthritis (Pearson): reduction in increase in paw volume; type: in vivo, male rats of the Wistar-Lewis strain; conditions: 50 mg/kg p.o. once daily day 1 to day 5; reduction in increase in paw volume vs control
Experimental: The investigations were carried out using the method of Pearson (Arthrit. Rheum. 2 (1959), p. 44). The experimental animals used were male rats of the Wistar-Lewis strain having a body weight between 130 and 200 g. Compounds to be tested were administered orally (p.o.) once daily from day 1 to day 5 of the experiment in doses of 50 mg per kg of body weight. The animals in a control group were given only the vehicle. Each preparation group and the control group contained 8 animals. The criterion used to determine the action was the percentage reduction in the increase in paw volume compared to that of the untreated control group.

[3] = tested on: lymphocytes from the spleen; assay: Inhibition of immunopathological processes: type II collagen-induced arthritis, immune activity of spleen lymphocytes towards mitogens; type: in vivo, male Wistar rats; conditions: 20-day treatment phase
Source text: It is generally accepted today that the advanced course of inflammatory rheumatic disorders is caused mainly by disfunctions in the immune system and that causal therapy can only succeed using medicaments which are capable of interrupting these immunopathological processes.
In this experiment, arthritis was induced in male Wistar rats by means of type II collagen, which could be obtained by standard methods of Miller and Rhodes (Meth. Enzymol. 82 (1982), p. 33) from the nasal septum of the calf and, mixed with Freund's incomplete adjuvant, was injected intradermally into the animals. This immunization procedure was repeated 7 days later. 20 days after the initial immunization, the sick rats were divided into groups each containing 7 animals, which, in the subsequent 20-day treatment phase, received the respective test substance or the pure vehicle (control group) once daily orally.
On day 41 of the experiment, ie. one day after the final administration of substance, lymphocytes were obtained from the spleen of the experimental animals and their immune activity towards mitogens was investigated, since the immune status of lymphocytes is also sensitively impaired in this model.

[4] = tested on: Adriamycin (doxorubicin) induced inflammation; assay: Adriamycin-induced inflammation (paw volume); type: in vivo, male Sprague-Dawley rats; conditions: for protective effect against Adriamycin-induced tissue destruction: orally once daily on 4 successive days
Source text: According to current opinion, aggressive oxygen radicals, which are formed to excess during the chronic inflammation process and, as highly toxic inflammation mediators themselves, perpetually maintain the destruction of connective tissue which proceeds via irreversible lipid peroxidation of the cell membranes, participate prominently in the progressive course, caused by a number of factors, of rheumatoid arthritis and other inflammatory disorders. As a consequence, pharmaceuticals having an antioxidative action and having the capability to deactivate these extremely cytotoxic oxygen radicals should allow specific intervention in the chronic course of the inflammation. A suitable animal model for this type of tissue destruction caused by oxygen radicals is Adriamycin (doxorubicin) induced inflammation in the rat. The investigations were carried out using the method of D. M. Siegel et al. (Inflammation 4 (1980), p. 233) on male Sprague-Dawley rats having a body weight between 200 and 230 g in groups each containing 7 animals, which received 0.1 mg of Adriamycin, dissolved in 0.1 ml of 0.9% strength sodium chloride solution, by means of subcutaneous injection into the left rear paw. The increase in paw volume was determined 72 hours later by plethysmographic measurement as a measure of the degree of inflammation. The test preparations were administered orally in 1% strength aqueous carboxymethylcellulose suspension once daily on 4 successive days, starting with the day of Adriamycin injection.

lymphocytes = assay: Inhibition of immunopathological processes: adjuvant arthritis, immune activity of lymphocytes towards mitogens; type: in vivo, rat
[5] = tested on: microsomal lipid peroxidation; assay: In-vitro inhibition of lipid peroxidation (thiobarbituric acid test), microsomes; type: biochemical; conditions: rat liver microsomes
Source text: (§1) Further convincing evidence of the pronounced protective action of the compounds according to the invention against aggressive oxygen radicals is provided by the thiobarbituric acid test of A. Ottolenghi (Arch. Biochem. Biophys. 79 (1959) pp. 355-363). Using this in-vitro method, the influence on microsomal and mitochondrial lipid peroxidation by antioxidatively active preparations can be determined from the malonodialdehyde produced on oxidative degradation of membrane-bound, polyunsaturated fatty acids.
(§2) Here too, the compounds of the formula I exerted a strong inhibitory action.

5-lipoxygenase = assay: Inhibition of 5-lipoxygenase in isolated polymorphonuclear granulocytes (LTB4 and 5-HETE formation); type: cell-based, human; conditions: 10^-5 to 10^-6 mol/l; pre-incubation 15 minutes; calcium ionophor A 23 187-stimulated; 15 minutes at 37° C.
Experimental: The inhibitory action of the compounds according to the invention on 5-lipoxygenase-catalyzed degradation of arachidonic acid was determined, as usual, in in-vitro experiments on isolated polymorphonuclear human granulocytes. To this purpose, cells stimulated by calcium ionophor A 23 187 (Calbiochem GmbH, Frankfurt/Main, FRG, Biochemical and Immunochemical Catalog 1985, p. 284) were incubated with ^14 C-labeled arachidonic acid, and the major radioactive degradation products of arachidonic acid formed after 15 minutes at 37° C. by biotransformation, 5-hydroxyeicosatetraenoic acid (5-HETE) and leucotriene B4 (LTB4), which has a particularly strong pro-inflammatory action, were determined quantitatively with the aid of a radio monitor after separation by high-pressure liquid chromatography (HPLC).

[6] = tested on: mitochondrial lipid peroxidation; assay: In-vitro inhibition of lipid peroxidation (thiobarbituric acid test), mitochondria; type: biochemical; conditions: rat liver mitochondria
Source text: as §1, §2

| Structure (SMILES) | LD50 at 168 h (in vivo [1]) [mg/kg] | TD50 at 24 h (in vivo [2]) [mg/kg] | Adjuvant Arthritis (% inhibition at 50 mg/kg p.o.) (Adjuvant arthritis) [%] | further results |
| --- | --- | --- | --- | --- |
| CC1SC2=NCCN2N=C1c1cc(C(C)(C)C)c(O)c(C(C)(C)C)c1 (stereo not shown) [Example 2, 3-(3,5-Di-tert.butyl-4-hydroxyphenyl)-2-methyl-6,7-dihydro-2H-imidazo[2,1-b][1,3,4]thiadiazine hydrochloride] | > 1200 | 200 | 63 | – |
| CC(C)(C)c1cc(C2=NN3CC(=O)N=C3SC2)cc(C(C)(C)C)c1O [Example 6, 3-(3,5-Di-tert.butyl-4-hydroxyphenyl)-7-oxo-6,7-dihydro-2H-imidazo[2,1-b][1,3,4]-thiadiazine hydrobromide] | 300 to 600 | > 200 | 73 | – |
| CC(C)(C)c1cc(C2=NN3C(=O)CN=C3SC2)cc(C(C)(C)C)c1O [Example 7, 3-(3,5-Di-tert.butyl-4-hydroxyphenyl)-6-oxo-6,7-dihydro-2H-imidazo[2,1-b][1,3,4]thiadiazine hydrobromide] | 300 to 600 | > 200 | 59 | – |
| COc1ccc2cc(C(C)C(=O)O)ccc2c1 (stereo not shown) [naproxen, 2-(6-methoxy2-naphthyl)-propionic acid, reference compound] | – | – | 55 | curative effects on the greatly weakened immune system ([3]; once daily orally): no action; protective effect against Adriamycin-induced tissue destruction [4]: ineffective; stimulating action on suppressed immunological response (lymphocytes; doses up to 25 mg/kg): ineffective |
| CC(C)(C)c1cc(C2=NN3CCN=C3SC2)cc(C(C)(C)C)c1O [Example 1, 3-(3,5-Di-tert.butyl-4-hydroxyphenyl)-6,7-dihydro-2H-imidazo[2,1-b][1,3,4]thiadiazine hydrochloride] | > 1200 | 400 | 62 | IC50 [5]: 500 nM; inhibition of formation of 5-HETE (5-lipoxygenase): significantly inhibit; inhibition of formation of LTB4 (5-lipoxygenase): significantly inhibit; IC50 [6]: 4000 nM; immune function of B lymphocytes ([3]; 25 mg/kg p.o. once daily): completely normalized; immune function of T lymphocytes ([3]; 25 mg/kg p.o. once daily): completely normalized; inhibition of Adriamycin-induced tissue destruction ([4]; 80 mg/kg p.o. once daily on 4 successive days, paw volume 72 hours after Adriamycin): 55%; protective effect against Adriamycin-induced tissue destruction [4]: dose-dependent protective effect; normalization of the immunoreactivity (lymphocytes; oral administration of 20 mg/kg): substantial normalization of the immunoreactivity |
| CC1Sc2nncn2N=C1c1cc(C(C)(C)C)c(O)c(C(C)(C)C)c1 (stereo not shown) [Example 5, 3-(3,5-Di-tert.butyl-4-hydroxyphenyl)-2-methyl-2H-s-triazolo[3,4-b][1,3,4]thiadiazine] | > 1200 | > 200 | 56 | – |
| CC(C)(C)c1cc(C2=Nn3ccnc3SC2)cc(C(C)(C)C)c1O [Example 4, 3-(3,5-Di-tert.butyl-4-hydroxyphenyl)-2H-imidazo[2,1-b][1,3,4]thiadiazine hydrochloride] | 300 to 600 | > 200 | 69 | – |
